Laboratory results taken from patent US7459444B2, “Inhibitors of chymase” (Janssen Pharmaceutica N.V., priority 2004, dated 2008).

Target: T1, human skin chymase (Homo sapiens, UniProt P23946)
T1 construct: using human skin chymase (Cortex Biochem); purchased Cortex Biochem
T1 sequence (P23946 22-247): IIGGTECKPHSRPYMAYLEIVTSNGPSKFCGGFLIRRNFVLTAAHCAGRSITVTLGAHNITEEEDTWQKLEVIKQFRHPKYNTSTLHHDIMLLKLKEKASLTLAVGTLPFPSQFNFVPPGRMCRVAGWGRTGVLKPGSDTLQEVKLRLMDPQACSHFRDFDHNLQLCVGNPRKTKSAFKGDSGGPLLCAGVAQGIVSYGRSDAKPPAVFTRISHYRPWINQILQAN
Assay: Enzyme-catalyzed hydrolysis assay (chymase inhibition)
Format: biochemical
Conditions: 10 nM enzyme, 0.7 mM Suc-Ala-Ala-Pro-Phe-pNa, pH 8.0, 37° C., 30 minutes
Protocol: Enzyme-catalyzed hydrolysis rates were measured spectro-photometrically using human skin chymase (Cortex Biochem), a chromogenic substrate (Suc-Ala-Ala-Pro-Phe-pNa) (Bachem) in aqueous buffer (450 mM Tris, 1800 mM NaCl, pH 8.0), and a microplate reader (Molecular Devices). […] Percent inhibition was calculated by comparing the initial reaction slopes of the samples without inhibitor to those with inhibitor. IC50 values were determined using a four parameter fit logistics model. The term “NT” indicates a compound that was not tested.

| Compound | IC50 [µM] |
| --- | --- |
| CP(=O)(O)C(C(=O)N/C=C/c1ccccc1NC(=O)NC(N)=O)c1csc2ccc(Cl)cc12 (stereo not drawn) [Cpd 159] | 3 ± 0.19 |
| Cn1cc(C(C(=O)Nc2ccc3ccccc3c2)P(=O)(O)O)c2c(Cl)cccc21 (stereo not drawn) [Cpd 63, [(4-Chloro-1-methyl-1H-indol-3-yl)-(naphthalen-2-ylcarbamoyl)-methyl]-phosphonic acid] | 0.83 ± 0.18 |
| CC1CCCC(NCc2cc3ccccc3cc2NC(=O)C(c2cccc3ccccc23)P(=O)(O)O)C1 (stereo not drawn) [Cpd 90] | 2.15 |
| CP(=O)(O)C(C(=O)NC=Cc1ccccc1NC(N)=O)c1csc2ccc(Cl)cc12 (stereo not drawn) [Cpd 158, {(5-Chloro-benzo[b]thiophen-3-yl)-[2-(2-ureido-phenyl)-vinylcarbamoyl]-methyl}-methyl-phosphinic acid] | 6 ± 1.9 |
| Cn1cc(C(C(=O)Nc2ccc3ccccc3c2)P(=O)(O)O)c2cccnc21 (stereo not drawn) [Cpd 116] | 5.4 |
| O=C(NCc1ccccc1)c1cc2ccccc2cc1NC(=O)C(c1cccc2ccccc12)P(=O)(O)O (stereo not drawn) [Cpd 119, [(3-Benzylcarbamoyl-naphthalen-2-ylcarbamoyl)-naphthalen-1-yl-methyl]-phosphonic acid] | 5.8 |
| O=C(Nc1ccc2cc(Br)ccc2c1)C(c1csc2ccc(Cl)cc12)P(=O)(O)O (stereo not drawn) [Cpd 67] | 0.92 ± 0.25 |
| O=C(Nc1ccc2ccccc2c1)OCc1cc2ccccc2cc1NC(=O)C(c1cccc2ccccc12)P(=O)(O)O (stereo not drawn) [Cpd 105] | 4.1 |
| COC(=O)COc1c(NC(=O)C(c2cccc3ccccc23)P(=O)(O)O)ccc2ccccc12 (stereo not drawn) [Cpd 134, [2-(2-Naphthalen-1-yl-2-phosphono-acetylamino)-naphthalen-1-yloxy]-acetic acid methyl ester] | 8.11 ± 4.75 |
| O=C(Nc1cc2ccccc2cn1)C(c1cccc2ccccc12)P(=O)(O)O (stereo not drawn) [Cpd 137] | 8.66 |
| O=C(Nc1ccc2[nH]ccc2c1)C(c1cccc2ccccc12)P(=O)(O)O (stereo not drawn) [Cpd 129] | 7.4 |
| CP(=O)(O)C(C(=O)NC=Cc1ccc(Cl)cc1)c1csc2ccc(Cl)cc12 (stereo not drawn) [Cpd 78] | 1.5 ± 0.43 |
| O=C(Nc1ccc2ccccc2c1)C(c1csc2cc(Br)ccc12)P(=O)(O)O (stereo not drawn) [Cpd 76] | 1.43 ± 0.451 |
| COC(=O)c1cc2ccccc2cc1NC(=O)C(c1cccc2ccccc12)P(=O)(O)O (stereo not drawn) [Cpd 75, 3-(2-Naphthalen-1-yl-2-phosphono-acetylamino)-naphthalene-2-carboxylic acid methyl ester] | 1.4 ± 0.6 |
| O=C(Nc1ccc2ccccc2c1)C(c1nnn[nH]1)c1csc2ccc(Cl)cc12 (stereo not drawn) [Cpd 88, 2-(5-Chloro-benzo[b]thiophen-3-yl)-n-naphthalen-2-yl-2-(1h-tetrazol-5-yl)-acetamide] | 2.04 ± 0.19 |
| COc1ccc(CCN(C)C(=O)c2cc3ccccc3cc2NC(=O)C(c2cccc3ccccc23)P(=O)(O)O)cc1OC (stereo not drawn) [Cpd 115] | 5.36 |
| Cn1cc(C(C(=O)Nc2ccc3ccccc3c2)P(=O)(O)O)c2cc(C(=O)O)ccc21 (stereo not drawn) [Cpd 56, 1-Methyl-3-[(naphthalen-2-ylcarbamoyl)-phosphono-methyl]-1H-indole-5-carboxylic acid] | 0.606 ± 0.13 |
| COC(=O)COc1cc2ccccc2cc1NC(=O)C(c1cccc2ccccc12)P(=O)(O)O (stereo not drawn) [Cpd 123] | 6.6 |
| CN(CCc1ccccc1)Cc1cc2ccccc2cc1NC(=O)C(c1cccc2ccccc12)P(=O)(O)O (stereo not drawn) [Cpd 126] | 7 |
| O=C(Nc1ccc2ccccc2c1OCC(=O)N1CCC(c2ccccc2)CC1)C(c1cccc2ccccc12)P(=O)(O)O (stereo not drawn) [Cpd 114, (Naphthalen-1-yl-{1-[2-oxo-2-(4-phenyl-piperidin-1-yl)-ethoxy]-naphthalen-2-ylcarbamoyl}-5 methyl)-phosphonic acid] | 4.9 ± 1.34 |
| O=C(NC=Cc1ccc(O)cc1)C(c1csc2ccc(Cl)cc12)P(=O)(O)O (stereo not drawn) [Cpd 66] | 0.868 ± 0.13 |
| O=C(Nc1cc2ccccc2s1)C(c1cccc2ccccc12)P(=O)(O)O (stereo not drawn) [Cpd 64] | 0.83 ± 0.08 |
| O=C(Nc1ccc2ccccc2c1)C(c1cn(-c2ccccc2)c2ccccc12)P(=O)(O)O (stereo not drawn) [Cpd 82, [(Naphthalen-2-ylcarbamoyl)-(1-phenyl-1H-indol-3-yl)-methyl]-phosphonic acid] | 1.7 ± 0.41 |
| CC(C)OC(=O)c1cc2ccccc2cc1NC(=O)C(c1cccc2ccccc12)P(=O)(O)O (stereo not drawn) [Cpd 139] | 8.8 |
| O=C(Nc1cc2ccccc2cc1OCc1ccccc1)C(c1cccc2ccccc12)P(=O)(O)O (stereo not drawn) [Cpd 122, [(3-Benzyloxy-naphthalen-2-ylcarbamoyl)-naphthalen-1-yl-methyl]-phosphonic acid] | 5.94 ± 1.69 |
| O=C(Nc1cc2ccccc2cc1CNC1CCCC1)C(c1cccc2ccccc12)P(=O)(O)O (stereo not drawn) [Cpd 124] | 6.7 |
| O=C(Nc1cc2ccccc2cc1C(=O)N1CCC(CCc2ccccc2)C1)C(c1cccc2ccccc12)P(=O)(O)O (stereo not drawn) [Cpd 54] | 0.51 ± 0.124 |
| [(5-Chloro-benzo[b]thiophen-3-yl)-(naphthalen-2-ylcarbamoyl)-methyl]-carbamate [Cpd 80] | 1.65 ± 0.68 |
| ({3-[(1-Benzoyl-piperidin-4-ylamino)-methyl]-naphthalen-2-ylcarbamoyl}-naphthalen-1-yl-methyl)-phosphonic acid [Cpd 44] | 0.35 ± 0.22 |
| Cn1cc(C(C(=O)Nc2ccc3ccccc3c2)P(=O)(O)O)c2cc(-c3ccc(F)cc3)ccc21 (stereo not drawn) [Cpd 98, [[5-(4-Fluoro-phenyl)-1-methyl-1H-indol-3-yl]-(naphthalen-2-ylcarbamoyl)-methyl]-phosphonic acid] | 2.9 |

Now from value to compound:

| IC50 [µM] | Compound |
| --- | --- |
| 0.34 ± 0.04 | Cc1ccccc1C=CNC(=O)C(c1csc2ccc(Cl)cc12)P(C)(=O)O (stereo not drawn) [Cpd 155] |
| 0.0059 ± 0.01 | COc1cc(/C=C/NC(=O)C(c2csc3ccc(Cl)cc23)P(C)(=O)O)cc(OC)c1 (stereo not drawn) [Cpd 168] |
| 0.055 ± 0.005 | CP(=O)(O)C(C(=O)N/C=C/c1cc(F)c(F)c(F)c1)c1csc2ccc(Cl)cc12 (stereo not drawn) [Cpd 16] |
| 0.009 | CP(=O)(O)C(C(=O)N/C=C/c1cc(F)cc(F)c1)c1csc2ccc(Cl)cc12 (stereo not drawn) [Cpd 162] |
| 0.017 ± 0.04 | CP(=O)(O)C(C(=O)N/C=C/c1cccc(Br)c1)c1csc2ccc(Cl)cc12 (stereo not drawn) [Cpd 167] |
| 0.17 ± 0.01 | O=C(Nc1ccc2ncsc2c1)C(c1csc2ccc(Cl)cc12)P(=O)(O)O (stereo not drawn) [Cpd 30] |
| 0.371 ± 0.11 | O=P(O)(O)C(C(=S)Nc1ccc2ccccc2c1)c1csc2ccc(Cl)cc12 (stereo not drawn) [Cpd 45, [(5-Chloro-benzo[b]thiophen-3-yl)-(naphthalen-2-ylthiocarbamoyl)-methyl]-phosphonic acid] |
| 0.43 ± 0.15 | O=C(Nc1ccc2ccccc2c1)C(c1csc2ccc(Cl)cc12)S(=O)(=O)O (stereo not drawn) [Cpd 50, [(5-Chloro-benzo[b]thiophen-3-yl)-(naphthalen-2-ylcarbamoyl)-methyl]-sulfonic acid] |
| 0.017 | CP(=O)(O)C(C(=O)N/C=C/c1cccc(F)c1F)c1csc2ccc(Cl)cc12 (stereo not drawn) [Cpd 163] |
| 0.0031 | CP(=O)(O)C(C(=O)N/C=C/c1cc(Cl)cc(Cl)c1)c1csc2ccc(Cl)cc12 (stereo not drawn) [Cpd 170] |
| 0.036 ± 0.01 | CP(=O)(O)C(C(=O)N/C=C/c1c(F)cccc1F)c1csc2ccc(Cl)cc12 (stereo not drawn) [Cpd 156] |
| 0.23 ± 0.04 | CC(=O)Oc1ccccc1/C=C/NC(=O)C(c1csc2ccc(Cl)cc12)P(C)(=O)O (stereo not drawn) [Cpd 148] |
| 0.042 | CP(=O)(O)C(C(=O)N/C=C/c1cc(F)ccc1F)c1csc2ccc(Cl)cc12 (stereo not drawn) [Cpd 169] |
| 0.25 ± 0.12 | O=C(N/C=C/c1ccccc1)C(c1cccc2ccccc12)P(=O)(O)O (stereo not drawn) [Cpd 37] |
| 0.31 ± 0.04 | O=C(Nc1ccc2ccccc2c1)C(c1csc2ccc(Cl)cc12)P(=O)(O)CCCc1ccc2c(c1)OCO2 (stereo not drawn) [Cpd 39] |
